Results as given in patent US20220054510A1, “USE OF 1-ALPHA-HYDROXYVITAMIN D5 AND RELATED COMPOUNDS AS PROPHYLACTIC OR THERAPEUTIC AGENTS FOR SARS-COV-2 (COVID-19 VIRUS) AND RELATED INFECTIONS” (priority 2020, published 2022).

Legend:
SARS-CoV-2 [1] = format: cell-based; settings: Ace2-A549 cells, concentration of 10 micromolar, FIG. 2
[2] = system: Ace2-A549 cells (human lung epithelial cells); assay: host cell survival in SARS-CoV-2 infected Ace2-A549 cells; settings: concentration of 10 micromolar
SARS-CoV-2 [3] = settings: biorxiv.org/content/10.1101/2020.06.21.162396v1; cited from earlier work

Row | SMILES | elimination of SARS-CoV-2 virus infection (SARS-CoV-2 [1]) | killing of host cells [2] | in vitro activity against this virus (SARS-CoV-2 [3])
1 | C=C1/C(=C\C=C2/CCC[C@]3(C)[C@@H]([C@H](C)CC[C@@H](CC)C(C)C)CC[C@@H]23)C[C@@H](O)C[C@@H]1O [1-alphahydroxyvitamin D5, 1-alpha-hydroxyvitamin D5] | greater than 99% | without killing the host cells | –
2 | C=C1/C(=C\C=C2/CCC[C@]3(C)[C@@H]([C@H](C)CCCC(C)(C)O)CC[C@@H]23)C[C@@H](O)C[C@@H]1O [Calcitriol] | – | – | in vitro activity against this virus
